Reference: patent publication US8415469B2, “Compounds and methods for kinase modulation, and indications therefor” (Plexxikon Inc., priority 2005, dated 2013)

Legend:
Format in all cases: biochemical
FGFR1 = biological target: T1, FGFR1 (Homo sapiens, UniProt P11362, C488A/C584S); assay: AlphaScreen kinase assay, FGFR1; details: read-out: IC50, activity toward kinase FGFR
T1 construct: P1351.pET N6 BI-PTP FGFR A458-E765-X C488A, C584S; made in house; host or cells: E. coli (PTP1B co-expressed)

Kdr = biological target: T2, Kdr (Homo sapiens, UniProt P35968); assay: Z'-Lyte FRET kinase assay (Invitrogen), Kdr; details: read-out: IC50, activity toward kinase Kdr
T2 construct: purchased Invitrogen (assay run by Invitrogen)

Flt4 = biological target: T3, Flt4 (Homo sapiens, UniProt P35916); assay: AlphaScreen kinase assay, Flt4; details: read-out: IC50, activity toward kinase Flt4
T3 construct: purchased ProQinase GmbH (Freiburg, Germany)
Text: AlphaScreen assay was used to screen additional kinases. The assay is similarly dependent on the phosphorylation of a peptide substrate. In this assay, an antibody that recognizes phosphorylated substrate is bound to an acceptor bead. The peptide substrate is attached to biotin, which binds to a donor head that contains streptavidin. Thus phosphorylated substrate is bound by antibody and streptavidin, bringing the donor and acceptor heads into close proximity when kinase is not inhibited. The donor produces singlet oxygen which results in emission from the acceptor when they are in close proximity. Conversely, when kinase is inhibited, the donor and acceptor beads are not associated and the emission from the acceptor is reduced.
AlphaScreen assays were done using compounds dissolved in DMSO to a concentration of 20 mM. The compounds were diluted accordingly to the desired final concentrations in each sample well, using 1:3 serial dilution for a total of 8 concentration points.

Kit = biological target: T4, Kit (Homo sapiens, UniProt P10721); assay: AlphaScreen kinase assay, Kit; details: read-out: IC50, activity toward kinase Kit
T4 construct: P1332.N6 BI PTP KIT M552-K948-X COD; His6 (N); made in house; host or cells: E. coli (PTP1B co-expressed)

B-Raf V600E = biological target: T5, B-Raf V600E (Homo sapiens, UniProt P15056, V600E); assay: AlphaScreen kinase assay, B-Raf V600E; details: read-out: IC50, activity toward kinase B-Raf V600E
T5 construct: P4254. pFastBacBD-CDC37 BRAF D437-K722-X, V600E; His6 with pFastBac HT leader (TEV site) (N); made in house; host or cells: Sf9 (baculovirus; chaperone CDC37 co-expressed)

Flt1 = biological target: T6, Flt1 (Homo sapiens, UniProt P17948); assay: AlphaScreen kinase assay, Flt1; details: read-out: IC50, activity toward kinase Flt1
T6 construct: P1826.pETN6 BI-PTP FLT1 M799-D1165-X WT; His6 (N); made in house; host or cells: E. coli (PTP1B co-expressed)
T6 sequence (P17948 with tags, fused parts or gaps): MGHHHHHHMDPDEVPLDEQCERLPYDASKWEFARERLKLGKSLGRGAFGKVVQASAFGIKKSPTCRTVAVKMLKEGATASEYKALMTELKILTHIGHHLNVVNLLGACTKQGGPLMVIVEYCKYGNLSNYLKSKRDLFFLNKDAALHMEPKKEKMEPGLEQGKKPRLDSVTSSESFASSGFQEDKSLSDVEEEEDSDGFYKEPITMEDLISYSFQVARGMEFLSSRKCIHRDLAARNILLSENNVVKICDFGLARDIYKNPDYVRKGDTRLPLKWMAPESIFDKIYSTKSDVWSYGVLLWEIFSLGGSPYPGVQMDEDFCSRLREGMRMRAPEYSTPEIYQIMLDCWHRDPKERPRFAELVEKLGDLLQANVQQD

Ret = biological target: T7, Ret (Homo sapiens, UniProt P07949); assay: AlphaScreen kinase assay, Ret; details: read-out: IC50, activity toward kinase Ret
T7 construct: P1378.pET-SF BI-PTP RET H661-R1012 HIS; made in house
T7 sequence (P07949 with tags, fused parts or gaps): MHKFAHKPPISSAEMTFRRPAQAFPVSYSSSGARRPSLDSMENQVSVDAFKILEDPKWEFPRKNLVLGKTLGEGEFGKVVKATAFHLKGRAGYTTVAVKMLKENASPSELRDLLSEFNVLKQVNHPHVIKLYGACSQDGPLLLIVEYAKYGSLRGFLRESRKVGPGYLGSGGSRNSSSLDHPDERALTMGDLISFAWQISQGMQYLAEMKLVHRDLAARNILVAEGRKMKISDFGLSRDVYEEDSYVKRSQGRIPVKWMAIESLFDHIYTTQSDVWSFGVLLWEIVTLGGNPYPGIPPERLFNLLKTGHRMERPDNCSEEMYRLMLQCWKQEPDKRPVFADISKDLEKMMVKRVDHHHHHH

Src = biological target: T8, Src (Homo sapiens, UniProt P12931); assay: AlphaScreen kinase assay, Src; details: read-out: IC50, activity toward kinase Src
T8 construct: P1144. pET-N6 BI-PTP SRC V86-L536-X; made in house

Fms = biological target: T9, Fms (Homo sapiens, UniProt P07333); assay: AlphaScreen kinase assay, Fms; details: read-out: IC50, activity toward kinase Fms
T9 construct: purchased Upstate Biotechnology

Jnk3 = biological target: T10, Jnk3 (Homo sapiens, UniProt P53779); assay: AlphaScreen kinase assay, Jnk3; details: read-out: IC50, activity toward kinase Jnk3
T10 construct: purchased Upstate Biotechnology

Fak = biological target: T11, Fak (Homo sapiens, UniProt Q05397); assay: AlphaScreen kinase assay, Fak; details: read-out: IC50, activity toward kinase Fak
T11 construct: P1358.pFastBacHtb FAK S411-Q686-X; His6 with pFastBacHTb leader (TEV site) (N); made in house; host or cells: Sf9 (baculovirus)

Btk = biological target: T12, Btk (Homo sapiens, UniProt Q06187); assay: Z'-Lyte FRET kinase assay (Invitrogen), Btk; details: read-out: IC50, activity toward kinase Btk
T12 construct: purchased Invitrogen (assay run by Invitrogen)

Yes = biological target: T13, Yes (Homo sapiens, UniProt P07947); assay: Z'-Lyte FRET kinase assay (Invitrogen), Yes; details: read-out: IC50, activity toward kinase Yes
T13 construct: purchased Invitrogen (Carlsbad, Calif.), screening service
How it was run: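 Z′-Lyte FRET assay: kinase phosphorylates 2 μM peptide substrate at 10 μM ATP in 50 mM HEPES pH 7.5, 50 mM MgCl2, 5 mM EGTA, 0.05% BRIJ-35, 1% DMSO, 1 h at room temperature. Protease development 1 h; coumarin/fluorescein emission ratio gives phosphorylation extent over compound concentration curves.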

c-Raf-1 = biological target: T14, c-Raf-1 (Homo sapiens, UniProt P04049); assay: AlphaScreen kinase assay, c-Raf-1; details: read-out: IC50, activity toward kinase c-Raf-1
T14 construct: purchased Upstate Biotechnology

Jnk2 = biological target: T15, Jnk2 (Homo sapiens, UniProt P45984); assay: AlphaScreen kinase assay, Jnk2; details: read-out: IC50, activity toward kinase Jnk2
T15 construct: purchased Roche Protein Expression Group (Indianapolis, IN)
How it was run: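 Inhibition reads as diminished acceptor emission, since unphosphorylated peptide fails to bridge antibody acceptor beads and streptavidin donor beads. Titration: eight points, 1:3 steps, stocks at 20 mM in DMSO.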

Jnk1 = biological target: T16, Jnk1 (Homo sapiens, UniProt P45983); assay: AlphaScreen kinase assay, Jnk1; details: read-out: IC50, activity toward kinase Jnk1
T16 construct: purchased Upstate Biotechnology

B-Raf = biological target: T17, B-Raf (Homo sapiens, UniProt P15056); assay: AlphaScreen kinase assay, B-Raf; details: read-out: IC50, activity toward kinase B-Raf
T17 construct: purchased Upstate Biotechnology

Stk6 = biological target: T18, Stk6 (Homo sapiens, UniProt O14965); assay: Z'-Lyte FRET kinase assay (Invitrogen), Stk6; details: read-out: IC50, activity toward kinase Stk6
T18 construct: purchased Invitrogen (Carlsbad, Calif.), screening service
T18 sequence (O14965 1-403): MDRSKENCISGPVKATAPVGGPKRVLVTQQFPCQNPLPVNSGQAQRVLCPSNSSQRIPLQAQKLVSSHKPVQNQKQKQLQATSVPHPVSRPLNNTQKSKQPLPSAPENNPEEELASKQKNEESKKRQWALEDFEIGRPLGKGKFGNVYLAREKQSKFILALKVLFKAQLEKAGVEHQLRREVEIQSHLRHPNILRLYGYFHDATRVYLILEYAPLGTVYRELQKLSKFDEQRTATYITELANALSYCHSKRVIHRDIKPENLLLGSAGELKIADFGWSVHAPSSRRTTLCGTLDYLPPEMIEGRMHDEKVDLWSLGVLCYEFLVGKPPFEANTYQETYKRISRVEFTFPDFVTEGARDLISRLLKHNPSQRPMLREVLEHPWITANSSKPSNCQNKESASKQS

T4 sequence (P10721 with tags, fused parts or gaps): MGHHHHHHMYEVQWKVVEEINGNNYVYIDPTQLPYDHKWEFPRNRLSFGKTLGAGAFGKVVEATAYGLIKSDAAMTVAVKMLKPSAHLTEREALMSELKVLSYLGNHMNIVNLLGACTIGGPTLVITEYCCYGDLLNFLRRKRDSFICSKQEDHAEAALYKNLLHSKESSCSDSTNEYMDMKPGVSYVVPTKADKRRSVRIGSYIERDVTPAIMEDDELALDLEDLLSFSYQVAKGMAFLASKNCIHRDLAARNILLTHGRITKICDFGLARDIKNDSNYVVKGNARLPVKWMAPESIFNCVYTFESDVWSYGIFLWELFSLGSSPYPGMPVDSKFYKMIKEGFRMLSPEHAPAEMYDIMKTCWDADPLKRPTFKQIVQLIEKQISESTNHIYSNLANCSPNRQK
T5 sequence (P15056 with tags, fused parts or gaps V600E): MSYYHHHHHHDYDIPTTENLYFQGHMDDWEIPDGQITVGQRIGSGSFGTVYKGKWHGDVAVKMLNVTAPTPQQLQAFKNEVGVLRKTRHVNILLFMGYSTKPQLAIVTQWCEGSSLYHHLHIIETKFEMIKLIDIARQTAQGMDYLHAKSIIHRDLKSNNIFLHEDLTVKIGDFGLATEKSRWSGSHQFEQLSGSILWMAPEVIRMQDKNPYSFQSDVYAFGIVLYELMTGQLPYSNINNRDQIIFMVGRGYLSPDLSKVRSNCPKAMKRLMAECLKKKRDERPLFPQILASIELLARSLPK
T10 sequence (P53779 whole entry): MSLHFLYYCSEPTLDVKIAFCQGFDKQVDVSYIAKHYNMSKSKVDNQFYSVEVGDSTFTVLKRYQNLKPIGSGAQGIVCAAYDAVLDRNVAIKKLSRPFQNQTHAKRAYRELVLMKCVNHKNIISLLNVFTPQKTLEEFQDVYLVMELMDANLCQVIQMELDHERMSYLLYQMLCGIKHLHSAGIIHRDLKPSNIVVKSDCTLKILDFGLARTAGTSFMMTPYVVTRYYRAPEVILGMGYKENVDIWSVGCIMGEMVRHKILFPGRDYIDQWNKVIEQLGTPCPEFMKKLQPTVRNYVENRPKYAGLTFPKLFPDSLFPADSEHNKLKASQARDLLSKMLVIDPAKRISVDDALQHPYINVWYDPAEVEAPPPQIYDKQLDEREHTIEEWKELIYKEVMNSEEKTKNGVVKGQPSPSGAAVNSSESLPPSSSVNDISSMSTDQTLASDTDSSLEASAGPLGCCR
T2 sequence (P35968 20-1356): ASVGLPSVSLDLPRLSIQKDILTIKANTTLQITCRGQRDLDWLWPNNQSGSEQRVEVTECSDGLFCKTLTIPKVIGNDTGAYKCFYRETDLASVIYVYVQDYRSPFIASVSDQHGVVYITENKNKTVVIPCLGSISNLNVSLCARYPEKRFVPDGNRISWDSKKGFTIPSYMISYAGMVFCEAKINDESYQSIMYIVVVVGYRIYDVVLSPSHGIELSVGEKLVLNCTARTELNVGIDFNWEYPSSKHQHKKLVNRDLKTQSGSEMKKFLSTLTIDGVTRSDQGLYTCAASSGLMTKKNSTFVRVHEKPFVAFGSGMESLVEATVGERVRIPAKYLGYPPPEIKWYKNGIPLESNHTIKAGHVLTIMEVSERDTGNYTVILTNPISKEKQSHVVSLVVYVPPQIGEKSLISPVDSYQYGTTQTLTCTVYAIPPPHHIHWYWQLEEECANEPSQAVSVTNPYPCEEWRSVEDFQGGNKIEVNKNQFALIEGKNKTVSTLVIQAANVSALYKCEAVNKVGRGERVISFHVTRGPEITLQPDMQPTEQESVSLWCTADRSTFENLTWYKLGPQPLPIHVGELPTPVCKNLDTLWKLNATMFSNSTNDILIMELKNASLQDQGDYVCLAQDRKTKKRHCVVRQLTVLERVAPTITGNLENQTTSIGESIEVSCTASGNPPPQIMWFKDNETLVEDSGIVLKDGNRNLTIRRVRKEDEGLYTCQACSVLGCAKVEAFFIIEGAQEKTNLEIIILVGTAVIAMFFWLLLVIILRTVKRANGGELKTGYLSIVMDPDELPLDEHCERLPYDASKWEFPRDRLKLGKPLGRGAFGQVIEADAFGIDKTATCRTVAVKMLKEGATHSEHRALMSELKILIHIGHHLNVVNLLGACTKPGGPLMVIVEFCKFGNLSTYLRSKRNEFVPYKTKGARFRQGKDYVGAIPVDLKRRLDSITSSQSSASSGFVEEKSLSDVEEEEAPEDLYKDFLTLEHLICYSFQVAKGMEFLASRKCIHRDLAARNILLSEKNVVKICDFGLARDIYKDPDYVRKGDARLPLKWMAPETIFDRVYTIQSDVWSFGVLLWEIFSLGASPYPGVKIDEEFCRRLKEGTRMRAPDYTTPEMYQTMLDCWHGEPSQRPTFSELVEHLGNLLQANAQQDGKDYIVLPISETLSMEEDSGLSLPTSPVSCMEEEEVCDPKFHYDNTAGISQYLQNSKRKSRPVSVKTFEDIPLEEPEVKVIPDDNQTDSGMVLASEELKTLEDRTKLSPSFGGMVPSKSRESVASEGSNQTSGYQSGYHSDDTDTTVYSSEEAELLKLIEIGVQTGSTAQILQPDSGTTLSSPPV
T1 sequence (P11362 458-765 C488A/C584S): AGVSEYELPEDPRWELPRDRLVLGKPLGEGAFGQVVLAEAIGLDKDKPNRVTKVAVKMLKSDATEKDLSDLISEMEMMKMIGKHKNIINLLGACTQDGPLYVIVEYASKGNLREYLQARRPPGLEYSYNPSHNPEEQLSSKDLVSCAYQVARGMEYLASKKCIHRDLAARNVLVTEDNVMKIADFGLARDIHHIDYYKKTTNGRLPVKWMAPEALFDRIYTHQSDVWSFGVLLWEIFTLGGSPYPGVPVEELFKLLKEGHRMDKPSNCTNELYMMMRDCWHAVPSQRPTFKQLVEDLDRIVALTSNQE
T9 sequence (P07333 20-972): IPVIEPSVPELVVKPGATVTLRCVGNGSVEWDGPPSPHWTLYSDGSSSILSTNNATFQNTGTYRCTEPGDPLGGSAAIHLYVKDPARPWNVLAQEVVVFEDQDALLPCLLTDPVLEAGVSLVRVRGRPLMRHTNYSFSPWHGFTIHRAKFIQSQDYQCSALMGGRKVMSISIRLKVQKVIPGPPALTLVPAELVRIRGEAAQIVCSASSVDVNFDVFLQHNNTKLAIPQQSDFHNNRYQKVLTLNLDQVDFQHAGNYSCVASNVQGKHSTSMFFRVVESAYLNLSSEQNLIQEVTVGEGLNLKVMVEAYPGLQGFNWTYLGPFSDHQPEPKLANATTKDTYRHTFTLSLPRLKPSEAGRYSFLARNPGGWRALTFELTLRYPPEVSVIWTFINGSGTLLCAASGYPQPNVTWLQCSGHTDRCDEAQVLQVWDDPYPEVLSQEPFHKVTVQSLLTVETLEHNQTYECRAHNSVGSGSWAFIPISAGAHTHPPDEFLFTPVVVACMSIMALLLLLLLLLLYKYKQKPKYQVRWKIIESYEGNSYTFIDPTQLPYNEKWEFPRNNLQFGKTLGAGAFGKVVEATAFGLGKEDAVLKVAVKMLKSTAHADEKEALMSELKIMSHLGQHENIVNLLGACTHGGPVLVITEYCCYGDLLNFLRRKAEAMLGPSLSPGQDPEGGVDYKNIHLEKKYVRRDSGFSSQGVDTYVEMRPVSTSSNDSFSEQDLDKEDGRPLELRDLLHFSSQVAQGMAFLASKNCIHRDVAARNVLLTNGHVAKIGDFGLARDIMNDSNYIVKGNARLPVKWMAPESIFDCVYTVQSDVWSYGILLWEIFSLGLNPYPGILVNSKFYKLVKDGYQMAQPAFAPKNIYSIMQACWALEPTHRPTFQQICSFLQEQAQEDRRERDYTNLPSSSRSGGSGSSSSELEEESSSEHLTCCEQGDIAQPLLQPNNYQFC
T8 sequence (P12931 with tags, fused parts or gaps): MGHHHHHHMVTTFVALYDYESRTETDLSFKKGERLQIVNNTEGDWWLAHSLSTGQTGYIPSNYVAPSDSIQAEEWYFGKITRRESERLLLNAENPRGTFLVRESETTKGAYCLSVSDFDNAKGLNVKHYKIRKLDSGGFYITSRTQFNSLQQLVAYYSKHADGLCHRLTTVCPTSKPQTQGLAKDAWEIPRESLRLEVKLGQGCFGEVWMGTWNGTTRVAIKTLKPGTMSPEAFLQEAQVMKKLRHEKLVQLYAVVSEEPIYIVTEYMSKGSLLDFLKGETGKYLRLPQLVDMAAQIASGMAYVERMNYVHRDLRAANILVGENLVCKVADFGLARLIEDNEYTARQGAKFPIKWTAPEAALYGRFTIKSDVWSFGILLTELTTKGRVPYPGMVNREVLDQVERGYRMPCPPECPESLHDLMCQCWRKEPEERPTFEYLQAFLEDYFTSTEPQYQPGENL
T14 sequence (P04049 whole entry): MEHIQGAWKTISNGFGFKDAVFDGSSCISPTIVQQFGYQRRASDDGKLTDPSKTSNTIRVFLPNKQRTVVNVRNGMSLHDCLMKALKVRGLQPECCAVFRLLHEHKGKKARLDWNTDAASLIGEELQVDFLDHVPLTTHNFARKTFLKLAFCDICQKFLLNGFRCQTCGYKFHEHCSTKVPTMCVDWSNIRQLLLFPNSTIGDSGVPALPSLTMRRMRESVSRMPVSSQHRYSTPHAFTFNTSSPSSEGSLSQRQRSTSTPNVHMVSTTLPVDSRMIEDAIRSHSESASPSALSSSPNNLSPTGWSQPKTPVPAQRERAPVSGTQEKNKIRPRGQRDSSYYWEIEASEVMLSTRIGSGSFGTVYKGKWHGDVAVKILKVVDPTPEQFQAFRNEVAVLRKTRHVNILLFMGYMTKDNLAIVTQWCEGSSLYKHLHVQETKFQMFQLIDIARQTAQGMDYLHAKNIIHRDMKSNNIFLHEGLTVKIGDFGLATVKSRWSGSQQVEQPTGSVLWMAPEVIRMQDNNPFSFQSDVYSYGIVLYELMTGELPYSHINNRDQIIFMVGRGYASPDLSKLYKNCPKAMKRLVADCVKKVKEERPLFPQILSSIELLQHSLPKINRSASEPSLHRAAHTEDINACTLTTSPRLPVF

Row | Structure (SMILES) | IC50 (FGFR1) | IC50 (Kdr) | IC50 (Flt4) | IC50 (Kit) | IC50 (B-Raf V600E) | IC50 (Flt1) | IC50 (Ret) | further results
1 | COc1cccc(C(=O)c2c[nH]c3ncc(-c4cccc(C(N)=O)c4)cc23)c1 [Compound P-0190] |  | ≤ 10 µM | ≤ 10 µM | ≤ 10 µM |  |  | ≤ 10 µM | IC50 (Jnk3): ≤ 10 µM
2 | O=S(=O)(c1ccccc1)c1c[nH]c2ncccc12 [Compound P-0544] |  |  | ≤ 10 µM |  |  |  |  | 
3 | COc1cccc(C(=O)c2c[nH]c3ncc(-c4ccsc4)cc23)c1 [Compound P-0211] | ≤ 10 µM |  | ≤ 10 µM | ≤ 10 µM | ≤ 10 µM | ≤ 10 µM | ≤ 10 µM | IC50 (Fak): ≤ 10 µM; IC50 (Fms): ≤ 10 µM; IC50 (Jnk3): ≤ 10 µM
4 | O=C(c1ccccc1F)c1c[nH]c2nccc(-c3cc(F)cc(F)c3)c12 [Compound P-0097] | ≤ 10 µM | ≤ 10 µM | ≤ 10 µM | ≤ 10 µM | ≤ 10 µM |  | ≤ 10 µM | IC50 (Btk): ≤ 10 µM; IC50 (Yes): ≤ 10 µM
5 | O=C(c1ccc(Cl)cc1)c1c[nH]c2ncc(-c3cccnc3)cc12 [Compound P-0418] | ≤ 10 µM | ≤ 10 µM | ≤ 10 µM | ≤ 10 µM | ≤ 10 µM |  | ≤ 10 µM | IC50 (Btk): ≤ 10 µM; IC50 (Fms): ≤ 10 µM; IC50 (c-Raf-1): ≤ 10 µM
6 | COc1cccc(C(=O)c2c[nH]c3ncc(-c4cccs4)cc23)c1 [Compound P-0204] | ≤ 10 µM | ≤ 10 µM | ≤ 10 µM | ≤ 10 µM |  |  | ≤ 10 µM | IC50 (Jnk2): ≤ 10 µM; IC50 (Jnk1): ≤ 10 µM; IC50 (Jnk3): ≤ 10 µM
7 | COc1ccc(C(=O)c2c[nH]c3ncc(Br)cc23)cc1 [Compound P-0617] |  |  | ≤ 10 µM | ≤ 10 µM |  |  |  | 
8 | COc1cccc(C(=O)c2c[nH]c3ncc(Br)cc23)c1F [Compound P-0265, (5-bromo-1H-pyrrolo[2,3-b]pyridin-3-yl)-(2-fluoro-3-methoxy-phenyl)-methanone] | ≤ 10 µM |  | ≤ 10 µM | ≤ 10 µM | ≤ 10 µM |  | ≤ 10 µM | IC50 (c-Raf-1): ≤ 10 µM; IC50 (B-Raf): ≤ 10 µM
9 | O=C(c1ccccc1)c1c[nH]c2nccc(-c3cc(F)cc(F)c3)c12 [Compound P-0452] | ≤ 10 µM |  | ≤ 10 µM |  |  |  | ≤ 10 µM | 
10 | O=C(c1ccc(F)cc1F)c1c[nH]c2nccc(-c3cc(F)cc(F)c3)c12 [Compound P-0352] |  |  | ≤ 10 µM | ≤ 10 µM | ≤ 10 µM |  | ≤ 10 µM | 
11 | COc1cccc(Cc2c[nH]c3ncc(-c4cc5ccccc5[nH]4)cc23)c1 [Compound P-0335] | ≤ 10 µM |  | ≤ 10 µM |  |  |  |  | 
12 | COc1cccc(C(=O)c2c[nH]c3ncc(-c4cccs4)cc23)c1F [Compound P-0206] | ≤ 10 µM | ≤ 10 µM | ≤ 10 µM | ≤ 10 µM |  | ≤ 10 µM | ≤ 10 µM | IC50 (Stk6): ≤ 10 µM

The next lines start with results.

Row | IC50 (FGFR1) | IC50 (Kdr) | IC50 (Flt4) | IC50 (Kit) | IC50 (B-Raf V600E) | IC50 (Flt1) | IC50 (Ret) | Structure (SMILES) | further results
13 | ≤ 10 µM | ≤ 10 µM | ≤ 10 µM | ≤ 10 µM | ≤ 10 µM | ≤ 10 µM | ≤ 10 µM | Nc1cccc(-c2cnc3[nH]cc(C(=O)c4cccc(Cl)c4Cl)c3c2)c1 [Compound P-0679] | 
14 | ≤ 10 µM | ≤ 10 µM | ≤ 10 µM | ≤ 10 µM | ≤ 10 µM | ≤ 10 µM | ≤ 10 µM | COc1ccc(C(=O)c2c[nH]c3ncc(-c4cccs4)cc23)cc1 [Compound P-0771] | IC50 (Src): ≤ 10 µM; IC50 (Fms): ≤ 10 µM
15 | ≤ 10 µM | ≤ 10 µM | ≤ 10 µM | ≤ 10 µM |  | ≤ 10 µM | ≤ 10 µM | Cc1cc(C(=O)c2c[nH]c3ncc(-c4cccc(C(N)=O)c4)cc23)nn1C [Compound P-0737] | 
16 |  | ≤ 10 µM | ≤ 10 µM | ≤ 10 µM |  |  | ≤ 10 µM | CS(=O)(=O)Nc1cccc(-c2cnc3[nH]cc(C(=O)c4ccc(Cl)cc4)c3c2)c1 [Compound P-0813] | 
17 | ≤ 10 µM | ≤ 10 µM | ≤ 10 µM | ≤ 10 µM | ≤ 10 µM | ≤ 10 µM | ≤ 10 µM | CC(=O)Nc1cccc(-c2cnc3[nH]cc(C(=O)c4ccccc4F)c3c2)c1 [Compound P-0668] | IC50 (Src): ≤ 10 µM; IC50 (Fak): ≤ 10 µM; IC50 (Jnk1): ≤ 10 µM; IC50 (Jnk3): ≤ 10 µM
18 | ≤ 10 µM | ≤ 10 µM | ≤ 10 µM | ≤ 10 µM |  | ≤ 10 µM | ≤ 10 µM | CC(=O)Nc1cccc(-c2cnc3[nH]cc(C(=O)c4cc(C)on4)c3c2)c1 [Compound P-0632] | IC50 (Jnk3): ≤ 10 µM
